Experiment [1] relates to Murine 3T3 cells (ATCC CCL-92). Nature of the experiment: Cytofluorometry: penetration of FITC functionalized nanotube into cells. It counts as cell-based. The note with it: 1 μM, 5 μM and 10 μM, 1 hour.
Experiment [2] has as its system Murine 3T3 cells (ATCC CCL-92). Nature of the experiment: Fluorescent and confocal microscopy: penetration of FITC functionalized nanotubes into cells. It counts as cell-based. The note with it: 1 μM, 5 μM and 10 μM; FIG. 3: 40 minutes incubation.

Each structure is given as a SMILES string.

As to `O=C(O)c1cc(NC(=S)NCCOCCOCCN2CCCC2)ccc1-c1c2ccc(=O)cc-2oc2cc(O)ccc12` [formula (L)], the “penetration into 3T3 cells (cytofluorometry)” value in experiment [1] was “readily penetrate into 3T3 cells”. For the same compound, the “penetration into 3T3 cells (fluorescence microscopy, FIG. 3)” value in experiment [2] is on record as “have penetrated into 3T3 cells”.

For the origin of these results see patent publication US20080008760A1, “Functionalized carbon nanotubes, a process for preparing the same and their use in medicinal chemistry” (priority 2003, published 2008).
